From patent publication US20130225629A1, “TARGETING PI3K/MTOR SIGNALLING AND NEUTROPHIL RECRUITMENT FOR TREATMENT OF ENTERITIS” (THE UNIVERSITY OF NORTH CAROLINA AT CHAPEL HILL, priority 2012, published 2013) come the findings set out here.

The subject of one test is C. jejuni. Briefly: C. jejuni induced colitis, histological intestinal inflammation score. The format is in vivo, mice. The note with it: AS252424 10 mg/kg i.p. daily, 6 days, vs vehicle. The text has this:
All animal protocols were approved by the Institutional Animal Care and Use Committee of the University of North Carolina at Chapel Hill (Chapel Hill, N.C., United States of America). Germ-free 8 to 12 week old II10^−/−; NF-κBEGFP (129/SvEv; C57BL/6 mixed background) mice were transferred from germ-free isolators and immediately gavaged with 10^9 C. jejuni cfu/mouse (strain 81-176 (Korlath et al., 1985)). Mice were then housed under Specific Pathogen-Free (SPF) conditions and sacrificed at 5 or 12 days. […] Intestinal inflammation was scored by evaluating the degree of lamina propria immune cell infiltration, goblet cell depletion, architectural distortion, as well as crypt hyperplasia, ulceration, and abscesses using a score from 0-4. […] Cecal and colonic inflammation induced by S. typhimurium was evaluated using a score from 0-13 as described. […]
All animal protocols were approved by the Institutional Animal Care and Use Committee of the University of North Carolina at Chapel Hill (Chapel Hill, N.C., United States of America). […] Histological images were acquired using a DP71 camera and DP Controller 3.1.1.276 (Olympus, Center Valley, Pa., United States of America), and intestinal inflammation was scored on a scale of 0 to 4 as described before (Lippert et al., 2009; Sun et al., 2012). […]

Another test has as its system neutrophils (MPO). Kind of test: Myeloperoxidase (MPO) immunohistochemistry of colon, neutrophil infiltration. The format is in vivo, mice. The note with it: in the presence of AS252424. How it is done: Deparaffinized colon sections were treated with 3% H2O2 for 10 minutes to quench endogenous peroxidases. Antigen retrieval was performed using microwave heating for 10 min in 10 mM citrate buffer pH 6.0. Sections were blocked in 5% goat serum TBS-T for 1 hour. The slides were incubated overnight at 4° C. with an anti-MPO antibody (1:400) (Thermo Scientific, Hampton, N.H., United States of America). Secondary biotinylated antibody was diluted at 1:1000 with the VECTASTAIN® ABC Elite Kit (Vector Laboratories, Inc., Burlingame, Calif., United States of America). Visualization was performed using DAB chromogen (Dako, Inc., Carpinteria, Calif., United States of America). Finally, sections were counterstained with hematoxylin for 5 seconds. Sections were imaged at the OLYMPUS® microscope using DP 71 camera and DP Controller 3.1.1.276 (Olympus, Center Valley, Pa., United States of America).
Neutrophils in intestinal tissue were detected using anti-myeloperoxidase (MPO) IHC as described previously (Sun et al., 2012). Briefly, intestinal tissue sections were deparaffinized, blocked and incubated with an anti-MPO antibody (1:400; Thermo Scientific, Hampton, N.H., United States of America) overnight. […]

`O=C1NC(=O)/C(=C/c2ccc(-c3ccc(F)cc3O)o2)S1` [AS252424]: the C. jejuni-induced colitis result in the test with C. jejuni was “reduced”. Besides, the “C. jejuni-induced neutrophil infiltration into colonic tissues (MPO staining)” value in the test on neutrophils (MPO) was “strongly reduced”.
